Legend:
VX2 tumor = assay: Oral administration of 3-BrPA in the VX2 liver tumor rabbit model; type: in vivo, New Zealand White rabbits
Method: New Zealand White rabbits were used in the study. All rabbits, carriers and recipients, were anesthetized with a mixture of acepromazine (2.5 mg/kg; Phoenix, St. Joseph, Mo.) and ketamine hydrochloride (44 mg/kg; Phoenix) administered intramuscularly. The VX2 tumor cell suspension was first injected into the hind legs of carrier rabbits and grown for 2 weeks. Resultant tumors were harvested from each carrier and a tumor suspension was prepared from each harvested tumor by dissection of viable tumor tissue and aseptic mincing.
For the rabbits that were going to receive the VX2 tumor implanted in the liver, intravenous access was gained via a marginal ear vein and 0.1-0.2 ml (2.5-5 mg) of sodium pentobarbital (Abbott Laboratories, Abbott Park, Ill.) was given periodically to maintain anesthesia. The abdomen of each recipient rabbit was shaved and disinfected with ethanol and povidine iodine. The liver of the rabbit was exposed by a midline incision, then an aliquot of the tumor cell suspension (0.2 ml) was injected directly using a 21-gauge angiocatheter into the left lobe of the liver in order to develop a solitary lesion with adequate surrounding liver parenchyma. The abdomen was closed in two layers. The tumor was allowed to grow in the rabbit livers for 7 days. Pain and distress levels were assessed by daily by monitoring food intake, feces and urine production and finally checking for signs of guarding or reluctance to move when touched.
Oral administration of 3-BrPA dissolved in PBS was examined using the VX2 tumor model, an animal model for hepatocellular carcinoma (described above). VX2 tumors were allowed to grow the livers of 12 New Zealand White rabbits for 10 days. Tumor bearing rabbits were divided in 4 groups. Group 1 (n=3) received 5 mg of 3-BrPA in 2.75 ml of Phosphate Buffered Saline (PBS) orally once a day, group 2 (n=3) received 10 mg of 3-BrPA in 2.75 ml of PBS orally once a day, group 3 (n=3) received 50 mg of 3-BrPA in 2.75 ml of PBS orally once a day and group 4 (control, n=3) received no treatment. Median survival for the animals in group 1 (n=3), receiving 5 mg of 3-BrPA in 2.75 ml of PBS, was 66 days. Animals in group 2 (n=3), receiving 10 mg of 3-BrPA in 2.75 ml of PBS, survived for 70 days. All the animals in group 3 (n=3), receiving 50 mg of 3-BrPA in 2.75 ml of PBS expired within 24 hours of oral administration of the first dose.
To test whether buffering 3-BrPA with NaHCO3 would allow oral administration of a higher dose of 3-BrPA, the maximum tolerated dose of orally administered 3-BrPA dissolved in NaHCO3 was determined. As in Example 1, the VX2 tumor model was used, with VX2 tumors grown in the livers of 12 New Zealand White rabbits for 10 days. Once again, the tumor bearing rabbits were divided in 4 groups. […] All animals in group 3 (n=3) expired within 24 hours after receiving 1000 mg of 3-BrPA in 2.75 ml of NaHCO3 orally.
The effect of pH on the survival of rabbits bearing VX2 liver tumors that were treated with the MTD of 3-BrPA buffered with NaHCO3 was examined. The VX2 tumor model was once again used, as described above. A total of 20 New Zealand White rabbits were included in the study. All rabbits received VX2 tumor implantation as described above. The tumor was allowed to grow in the rabbit livers for 7 days. Rabbits were divided in 4 groups. Group 1 (n=6) received 500 mg of 3-BrPA in 2.75 ml of NaHCO3 (1 M, resulting in pH 4), group 2 (n=2) received 500 mg of 3-BrPA in 2.75 ml of PBS (resulting in pH<2), group 3 (n=6) received 500 mg of 3-BrPA in 2.75 ml of NaHCO3 (2 M, resulting in pH 7) and group 4 (n=6) received no treatment (control group). All drugs were administered orally once a day.

H1299 cells = assay: Luminescence ATP assay, H1299; type: cell-based
Method: Cytotoxicity of 3-BrPA was evaluated by the IC50 values, representing the drug concentration which depletes ATP by 50% compared to non-treated control. On day 1, cells were seeded into 96-well plates in a volume of 100 μl per well. On day 2, the medium of all wells was removed and an aliquot of 100 μl of media having serial dilutions of 3-BrPA in PBS, NaHCO3, NaOH, KOH and KHCO3 was added to the appropriate well. After 24 h of drug exposure cytotoxic effects of 3-BrPA were monitored by cellular ATP level using CellTiter-Glo™ assay reagents from Promega Corp (Madison, Wis.). Briefly, 100 μl assay reagent was added to each well and mixed at room temperature for 2 min to develop luminescent signal. The luminescence intensity (cps) from each sample was determined with a spectrometer (Model Victor III, Perkin Elmer, Mass.). Relative luminescence was calculated in proportion to the numbers of living cells per sample well. The results are expressed as the mean of three independent experiments. The intracellular ATP contents were calculated and normalized by equal cell number and expressed as the percentage of the control cells. The IC50 values were estimated graphically from dose-response plots.
The anti-metabolic effect of 3-BrPA on H1299 cells was examined using luminescence ATP assays, as described above. […]

[1] = Effect of 3-BrPA concentration on tolerability of oral administration; type: in vivo, nude mice; settings: for Time to death (all mice died): oral
Method: To determine the effect of compound concentration on the tolerable dose of 3-BrPA, a series of experiments were performed in nude mice to determine how a change in administered volume, and therefore a change 3-BrPA concentration, would influence compound efficacy and animal survival. For these experiments, 3-BrPa was administered at a dose of 200 mg/kg and a pH of 4.
All mice in group 1 and 2 (n=3 per group) died within 24 hours after receiving 5 mg of 3-BrPA in volumes of […], respectively.

[2] = MTD of 3-BrPA buffered with 2.75 ml of NaHCO3
[3] = MTD of 3-BrPA buffered with NaHCO3

## O=C(O)C(=O)CBr [3-BrPA, 3-bromopyruvate]
VX2 tumor; 5 mg of 3-BrPA in 2.75 ml of PBS orally once a day
  Median survival: 66 days
VX2 tumor; 10 mg of 3-BrPA in 2.75 ml of PBS orally once a day
  Survival: 70 days
VX2 tumor; 50 mg of 3-BrPA in 2.75 ml of NaHCO3 (1M) orally once a day
  Median survival: 60 days
VX2 tumor; 50 mg of 3-BrPA in 2.75 ml of PBS orally
  Time to death after first oral dose (all animals expired): ≤ 24 h
VX2 tumor; 500 mg in 2.75 ml of NaHCO3 (1 M, resulting in pH 4), orally once a day, compared to groups 2, 3 and 4
  Animal survival, Kaplan Meier analysis: significant survival benefit
VX2 tumor; 500 mg of 3-BrPA in 2.75 ml of NaHCO3 orally once a day
  Median survival time: 100 days
VX2 tumor; 500 mg, unbuffered, pH<2, oral
  Outcome of unbuffered 3-BrPA: immediate death
VX2 tumor; 1000 mg of 3-BrPA in 2.75 ml of NaHCO3 orally
  Time to death (all animals expired): ≤ 24 h
VX2 tumor; [2]
  Survival longer than rabbits that did not receive 3-BrPA: 79%
  Survival longer than rabbits treated with the MTD of 3-BrPA buffered with PBS: 42%
VX2 tumor; [3]
  Cause of death: died of aspiration
  Mean liver tumor size: < 0.5 cm
  Metastases on pathology: no metastases
VX2 tumor; all other groups
  Mean liver tumor size: > 8 cm
VX2 tumor; all other rabbits
  Metastases on pathology: widespread metastases
VX2 tumor; buffered with 2.75 ml of 1M NaHCO3
  Increase of MTD compared to the MTD of 3-BrPA in PBS: 50 fold
VX2 tumor; buffered with 2.75 ml of 1M NaHCO3, oral
  Maximum tolerated dose (MTD): 500 mg
VX2 tumor; buffering conditions that resulted in a pH>6 (500 mg in 2 M NaHCO3, pH 7)
  Effectiveness as a cancer therapeutic: less effective
VX2 tumor; dissolved in 2.75 ml of PBS, oral
  Maximum tolerated dose (MTD): 10 mg
H1299 cells
  ATP level (bioluminescent quantification): dose and time dependent energy (ATP) depletion
[1]; group 1: 5 mg (200 mg/kg, pH 4) in a volume of 50 ml
  Time to death (all mice died): ≤ 24 h
[1]; group 2: 5 mg (200 mg/kg, pH 4) in a volume of 100 ml
  Time to death (all mice died): ≤ 24 h
[1]; group 3: 200 mg/kg, pH 4, volume of 150 ml
  Tolerability of daily oral administration: did not show any signs of discomfort
[1]; group 4: 200 mg/kg, pH 4, volume of 200 ml
  Tolerability of daily oral administration: did not show any signs of discomfort
[1]; group 5: 200 mg/kg, pH 4, volume of 300 ml
  Tolerability of daily oral administration: did not show any signs of discomfort
